We go through 30 compounds from patent US9839639B2, “Neprilysin inhibitors” (THERAVANCE BIOPHARMA R&D IP, LLC, priority 2014, dated 2017).

T1 sequence (P08473 52-750 limits assumed): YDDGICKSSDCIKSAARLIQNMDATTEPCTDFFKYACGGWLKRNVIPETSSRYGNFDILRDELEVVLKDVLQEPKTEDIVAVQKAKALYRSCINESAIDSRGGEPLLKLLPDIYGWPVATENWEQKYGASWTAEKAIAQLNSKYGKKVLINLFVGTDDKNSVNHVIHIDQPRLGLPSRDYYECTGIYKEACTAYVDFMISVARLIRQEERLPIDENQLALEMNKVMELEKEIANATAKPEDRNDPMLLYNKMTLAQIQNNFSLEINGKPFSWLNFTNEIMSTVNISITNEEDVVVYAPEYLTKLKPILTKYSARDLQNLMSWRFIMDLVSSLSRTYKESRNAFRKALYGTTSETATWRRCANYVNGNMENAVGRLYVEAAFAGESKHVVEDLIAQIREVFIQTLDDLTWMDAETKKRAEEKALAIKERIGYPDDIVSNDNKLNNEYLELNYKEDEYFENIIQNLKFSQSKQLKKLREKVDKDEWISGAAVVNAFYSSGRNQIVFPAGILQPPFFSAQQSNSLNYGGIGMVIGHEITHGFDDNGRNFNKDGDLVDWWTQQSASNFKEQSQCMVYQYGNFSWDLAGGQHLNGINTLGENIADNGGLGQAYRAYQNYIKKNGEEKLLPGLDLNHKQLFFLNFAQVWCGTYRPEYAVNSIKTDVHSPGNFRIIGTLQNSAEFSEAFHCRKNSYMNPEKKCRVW

The assay has as its target T1, human NEP (Homo sapiens, UniProt P08473).
T1 construct: purchased R&D Systems, Minneapolis, Minn; 1182-ZN
In words: In vitro enzyme inhibition assay, inhibitor potency at human NEP. The class given is biochemical. The settings on record: recombinant human NEP, fluorogenic peptide substrate 10 μM, 37° C.; values given as ranges. On the procedure: The inhibitory activities of compounds at human and rat neprilysin (EC 3.4.24.11; NEP) and human angiotensin converting enzyme (ACE) were determined using in vitro assays as described below.
Recombinant human NEP and recombinant human ACE were obtained commercially (R&D Systems, Minneapolis, Minn., catalog numbers 1182-ZN and 929-ZN, respectively). The fluorogenic peptide substrate Mca-D-Arg-Arg-Leu-Dap-(Dnp)-OH (Medeiros et al. (1997) Braz. J. Med. Biol. Res. 30:1157-62; Anaspec, San Jose, Calif.) and Abz-Phe-Arg-Lys(Dnp)-Pro-OH (Araujo et al. (2000) Biochemistry 39:8519-8525; Bachem, Torrance, Calif.) were used in the NEP and ACE assays respectively.
The assays were performed in 384-well white opaque plates at 37° C. using the fluorogenic peptide substrates at a concentration of 10 μM in Assay Buffer (NEP: 50 mM HEPES, pH 7.5, 100 mM NaCl, 0.01% polyethylene glycol sorbitan monolaurate (Tween-20), 10 μM ZnSO4; ACE: 50 mM HEPES, pH 7.5, 100 mM NaCl, 0.01% Tween-20, 1 μM ZnSO4).
Test compounds were assayed over the range of concentrations from 10 μM to 20 pM. Test compounds were added to the enzymes and incubated for 30 minute at 37° C. prior to initiating the reaction by the addition of substrate. Reactions were terminated after 20 minutes of incubation at 37° C. by the addition of glacial acetic acid to a final concentration of 3.6% (v/v).
Plates were read on a fluorometer with excitation and emission wavelengths set to 320 nm and 405 nm, respectively. Inhibition constants were obtained by nonlinear regression of the data using the equation (GraphPad Software, Inc., San Diego, Calif.): v=v0/[1+(I/K′)] where v is the reaction rate, v0 is the uninhibited reaction rate, I is the inhibitor concentration and K′ is the apparent inhibition constant.
Compounds of the invention were tested in this assay and found to have pKi values at human NEP as follows.
`CC(N)(C[C@@H](Cc1ccc(-c2cc(Cl)ccc2F)cc1)NC(=O)c1cnn[nH]1)C(=O)O` (single isomer, unassigned) [Example 1a]: the Ki (in general, a measure of affinity in units of concentration, obtained from inhibition or displacement) was 3.98 to 10 nM.

On to `CC(C#N)(C[C@@H](Cc1ccc(-c2cc(Cl)ccc2F)cc1)NC(=O)c1cnn[nH]1)C(=O)O` (single isomer, unassigned) [Example 12a], for which the Ki was 39.8 to 100 nM.

`CC(C#N)(C[C@@H](Cc1ccc(-c2cc(Cl)ccc2F)cc1)NC(=O)c1cnn[nH]1)C(=O)O` (single isomer, unassigned) [Example 12b]: the inhibition constant (Ki) was ≤ 1 nM.

Consider `CCC(CO)(C[C@@H](Cc1ccc(-c2cc(Cl)ccc2F)cc1)NC(=O)c1cnn[nH]1)C(=O)O` (single isomer, unassigned) [Example 14b], for which the pKi entry was “≧9.0”.

As for `CCCC(CO)(C[C@@H](Cc1ccc(-c2cc(Cl)ccc2F)cc1)NC(=O)c1cnn[nH]1)C(=O)O` (single isomer, unassigned) [Example 15b], the pKi result is reported as “≧9.0”.

As to `O=C(N[C@H](Cc1ccc(-c2cc(Cl)ccc2F)cc1)CC(CO)(CCO)C(=O)O)c1cnn[nH]1` (single isomer, unassigned) [Example 16a], the Ki is 1.26 to 3.16 nM.

As for `O=C(N[C@H](Cc1ccc(-c2cc(Cl)ccc2F)cc1)CC(CO)(CCO)C(=O)O)c1cnn[nH]1` (single isomer, unassigned) [Example 16b], the inhibition constant (Ki) is 12.6 to 31.6 nM.

Take `C=CCC(CO)(C[C@@H](Cc1ccc(-c2cc(Cl)ccc2F)cc1)NC(=O)c1cnn[nH]1)C(=O)O` (single isomer, unassigned) [Example 19a]: the Ki is ≤ 1 nM.

For `O=C(N[C@H](Cc1ccc(-c2cc(Cl)ccc2F)cc1)CC1(C(=O)O)CCOC1)c1cnn[nH]1` (single isomer, unassigned) [Example 20b], the pKi entry is on record as “≧9.0”.

For `O=C(N[C@H](Cc1ccc(-c2cc(Cl)ccc2F)cc1)CC1(C(=O)O)CCNC1)c1cnn[nH]1` (single isomer, unassigned) [Example 21a], the inhibitory constant (Ki) is ≤ 1 nM.

In the case of `CC(=O)N1CCC(C[C@@H](Cc2ccc(-c3cc(Cl)ccc3F)cc2)NC(=O)c2cnn[nH]2)(C(=O)O)C1` (single isomer, unassigned) [Example 22a], the Ki is ≤ 1 nM.

`CCC(C#N)(C[C@@H](Cc1ccc(-c2cc(Cl)ccc2F)cc1)NC(=O)c1cnn[nH]1)C(=O)O` (single isomer, unassigned) [Example 23a]: the Ki is ≤ 1 nM.

For `CCC(C#N)(C[C@@H](Cc1ccc(-c2cc(Cl)ccc2F)cc1)NC(=O)c1cnn[nH]1)C(=O)O` (single isomer, unassigned) [Example 23b], the Ki is 126 to 316 nM.

Take `C[C@@](CN)(C[C@@H](Cc1ccc(-c2cc(Cl)ccc2F)cc1)NC(=O)c1cnn[nH]1)C(=O)O` [Example 2, (2S,4R)-2-Aminomethyl-5-(5′-chloro-2′-fluorobiphenyl-4-yl)-2-methyl-4-[(3H-[1,2,3]triazole-4-carbonyl)amino]pentanoic Acid]: the Ki was ≤ 1 nM.

On to `C[C@@](CN)(C[C@@H](Cc1ccc(-c2cc(Cl)ccc2F)cc1)NC(=O)c1ccn(C(F)F)n1)C(=O)O` [Example 3, (2S,4R)-2-Aminomethyl-5-(5′-chloro-2′-fluorobiphenyl-4-yl)-4-[(1-difluoromethyl-1H-pyrazole-3-carbonyl)amino]-2-methylpentanoic Acid], for which the Ki was 1.26 to 3.16 nM.

Regarding `CC(=O)c1cc(C(=O)N[C@H](Cc2ccc(-c3cc(Cl)ccc3F)cc2)C[C@@](C)(CN)C(=O)O)[nH]n1` [Example 4-1, (2S,4R)-4-[(5-Acetyl-2H-pyrazole-3-carbonyl)-amino]-2-aminomethyl-5-(5′-chloro-2′-fluorobiphenyl-4-yl)-2-methylpentanoic acid], the Ki is 3.98 to 10 nM.

Regarding `Cc1cnc(C(=O)N[C@H](Cc2ccc(-c3cc(Cl)ccc3F)cc2)C[C@@](C)(CN)C(=O)O)o1` [Example 4-2, (2S,4R)-2-Aminomethyl-5-(5′-chloro-2′-fluorobiphenyl-4-yl)-2-methyl-4-[(5-methyl-oxazole-2-carbonyl)amino]pentanoic acid], the inhibition constant (Ki) was 1.26 to 3.16 nM.

For `C[C@](C[C@@H](Cc1ccc(-c2cc(Cl)ccc2F)cc1)NC(=O)c1c[nH]nn1)(C(N)=O)C(=O)O` [Example 5, (2S,4R)-2-Carbamoyl-5-(5′-chloro-2′-fluorobiphenyl-4-yl)-2-methyl-4-[(1H-[1,2,3]triazole-4-carbonyl)amino]pentanoic Acid], the Ki was ≤ 1 nM.

In the case of `CC(C[C@@H](Cc1ccc(-c2cc(Cl)ccc2F)cc1)NC(=O)c1c[nH]nn1)(C(=O)O)C(=O)O` [Example 6, 2-{(R)-3-(5′-Chloro-2′-fluorobiphenyl-4-yl)-2-[(1H-[1,2,3]triazole-4-carbonyl)amino]propyl}-2-methylmalonic Acid], the Ki was ≤ 1 nM.

Regarding `COC[C@](C)(C[C@@H](Cc1ccc(-c2cc(Cl)ccc2F)cc1)NC(=O)c1noc(=O)[nH]1)C(=O)O` [Example 7, (2S,4R)-5-(5′-Chloro-2′-fluorobiphenyl-4-yl)-2-methoxymethyl-2-methyl-4-[(5-oxo-4,5-dihydro-[1,2,4]oxadiazole-3-carbonyl)amino]pentanoic Acid], the Ki is ≤ 1 nM.

Take `COC[C@](C)(C[C@@H](Cc1ccc(-c2cc(Cl)ccc2F)cc1)NC(=O)c1ncc(C)o1)C(=O)O` [Example 8-1, (2S,4R)-5-(5′-Chloro-2′-fluorobiphenyl-4-yl)-2-methoxymethyl-2-methyl-4-[(5-methyloxazole-2-carbonyl)amino]pentanoic acid]: the Ki was ≤ 1 nM.

Consider `COC[C@](C)(C[C@@H](Cc1ccc(-c2cc(Cl)ccc2F)cc1)NC(=O)c1coc(C2CC2)n1)C(=O)O` [Example 8-2, (2S,4R)-5-(5′-Chloro-2′-fluorobiphenyl-4-yl)-4-[(2-cyclopropyloxazole-4-carbonyl)amino]-2-methoxymethyl-2-methylpentanoic acid], for which the Ki was 1.26 to 3.16 nM.

In the case of `COC[C@](C)(C[C@@H](Cc1ccc(-c2cc(Cl)ccc2F)cc1)NC(=O)c1ccc(Cl)cn1)C(=O)O` [Example 8-3, (2S,4R)-5-(5′-Chloro-2′-fluorobiphenyl-4-yl)-4-[(5-chloropyridine-2-carbonyl)amino]-2-methoxymethyl-2-methylpentanoic acid], the Ki is 1.26 to 3.16 nM.

Regarding `COC[C@](C)(C[C@@H](Cc1ccc(-c2cc(Cl)ccc2F)cc1)NC(=O)c1ncccn1)C(=O)O` [Example 8-4, (2S,4R)-5-(5′-Chloro-2′-fluorobiphenyl-4-yl)-2-methoxymethyl-2-methyl-4-[(pyrimidine-2-carbonyl)amino]pentanoic acid], the inhibition constant Ki is ≤ 1 nM.

In the case of `COC[C@](C)(C[C@@H](Cc1ccc(-c2cc(Cl)ccc2F)cc1)NC(=O)c1ccc(C(F)(F)F)cn1)C(=O)O` [Example 8-5, (2S,4R)-5-(5′-Chloro-2′-fluorobiphenyl-4-yl)-2-methoxymethyl-2-methyl-4-[(5-trifluoromethylpyridine-2-carbonyl)amino]pentanoic acid], the Ki was ≤ 1 nM.

With `COC[C@](C)(C[C@@H](Cc1ccc(-c2cc(Cl)ccc2F)cc1)NC(=O)c1ncco1)C(=O)O` [Example 8-6, (2S,4R)-5-(5′-Chloro-2′-fluorobiphenyl-4-yl)-2-methoxymethyl-2-methyl-4-[(oxazole-2-carbonyl)amino]pentanoic acid], the Ki is ≤ 1 nM.

Regarding `COC[C@](C)(C[C@@H](Cc1ccc(-c2cc(Cl)ccc2F)cc1)NC(=O)c1nc[nH]n1)C(=O)O` [Example 8-7, (2S,4R)-5-(5′-Chloro-2′-fluorobiphenyl-4-yl)-2-methoxymethyl-2-methyl-4-[(1H-[1,2,4]triazole-3-carbonyl)amino]pentanoic acid], the Ki is 1.26 to 3.16 nM.

For the compound `CCOn1cc(C(=O)N[C@H](Cc2ccc(-c3cc(Cl)ccc3F)cc2)C[C@@](C)(COC)C(=O)O)nn1` [Example 8-8, (2S,4R)-5-(5′-Chloro-2′-fluorobiphenyl-4-yl)-4-[(1-ethoxy-1H-[1,2,3]triazole-4-carbonyl)amino]-2-methoxymethyl-2-methylpentanoic acid], the Ki is ≤ 1 nM.

In the case of `COC[C@](C)(C[C@@H](Cc1ccc(-c2cc(Cl)ccc2F)cc1)NC(=O)c1cn(OC)nn1)C(=O)O` [Example 8-9, (2S,4R)-5-(5′-Chloro-2′-fluorobiphenyl-4-yl)-2-methoxymethyl-4-[(1-methoxy-1H-[1,2,3]triazole-4-carbonyl)amino]-2-methylpentanoic acid], the inhibitory constant (Ki) is 1.26 to 3.16 nM.

Consider `COC[C@](C)(C[C@@H](Cc1ccc(-c2cc(Cl)ccc2F)cc1)NC(=O)c1cn(CCO)nn1)C(=O)O` [Example 8-10, (2S,4R)-5-(5′-Chloro-2′-fluorobiphenyl-4-yl)-4-{[1-(2-hydroxyethyl)-1H-[1,2,3]triazole-4-carbonyl]amino}-2-methoxymethyl-2-methylpentanoic acid], for which the Ki is 1.26 to 3.16 nM.
